Assay results published in ChEMBL document CHEMBL4354855 (J Med Chem, 2020).

Legend:
[1] = Stability of the compound in GSH assessed as parent compound remaining measured after 24 hrs; assay type: physicochemical; settings: GSH (glutathione); read-out: Stability
[2] = Lipophilicity, log P of the compound; assay type: physicochemical; settings: octanol/water
[3] = Half life in human plasma; assay type: ADME, cell-free
[4] = Drug level in OFA-1 rat blood at 3 mg/kg, po measured after 5 hrs; assay type: ADME, organism-based; settings: whole blood, read-out: Drug uptake
[5] = Intrinsic clearance in rat liver microsomes; assay type: ADME, Microsome; settings: read-out: CLH
[6] = Drug level in OFA-1 rat blood at 10 mg/kg, po measured after 5 hrs; assay type: ADME, organism-based; settings: whole blood, read-out: Drug uptake
[7] = Oral bioavailability in OFA-1 rat at 10 mg/kg; assay type: ADME, organism-based; settings: in vivo
[8] = Clearance in OFA-1 rat at 3 mg/kg, po; assay type: ADME, organism-based; settings: in vivo
[9] = Drug level in OFA-1 rat at 1 mg/kg, po measured after 0.5 hrs; assay type: ADME, organism-based; settings: in vivo, read-out: Drug uptake
[10] = Clearance in Lewis rat at 1 mg/kg, iv or 3 mg/kg, po; assay type: ADME, organism-based; settings: in vivo
[11] = Tmax in Beagle dog at 1 mg/kg, iv or 3 mg/kg, po; assay type: ADME, organism-based, Canis lupus familiaris; settings: in vivo
[12] = Intrinsic clearance in dog liver microsomes; assay type: ADME, Canis lupus familiaris, Microsome; settings: read-out: CLH
[13] = Half life in Beagle dog at 1 mg/kg, iv or 3 mg/kg, po; assay type: ADME, organism-based, Canis lupus familiaris; settings: in vivo
[14] = Tmax in Lewis rat at 1 mg/kg, iv or 3 mg/kg, po; assay type: ADME, organism-based; settings: in vivo
[15] = Oral bioavailability in Beagle dog at 3 mg/kg; assay type: ADME, organism-based, Canis lupus familiaris; settings: in vivo
[16] = Dose normalized Cmax in Beagle dog at 1 mg/kg, iv or 3 mg/kg, po; assay type: ADME, organism-based, Canis lupus familiaris; settings: in vivo
[17] = Thermodynamic solubility of the compound at pH 1; assay type: physicochemical; settings: buffer, read-out: Therm_solubility
[18] = Dose normalized AUC in Beagle dog at 3 mg/kg, po; assay type: ADME, organism-based, Canis lupus familiaris; settings: in vivo
[19] = Oral bioavailability in C57BL/6 mouse at 3 mg/kg; assay type: ADME, organism-based; settings: in vivo
[20] = Volume of distribution at steady state in Beagle dog at 1 mg/kg, iv or 3 mg/kg, po; assay type: ADME, organism-based, Canis lupus familiaris; settings: in vivo, read-out: Vdss
[21] = Half life in C57BL/6 mouse at 1 mg/kg, iv or 3 mg/kg, po; assay type: ADME, organism-based; settings: in vivo
[22] = Clearance in C57BL/6 mouse at 1 mg/kg, iv or 3 mg/kg, po; assay type: ADME, organism-based; settings: in vivo
[23] = Intrinsic clearance in mouse liver microsomes; assay type: ADME, Microsome; settings: read-out: CLH
[24] = Dose normalized Cmax in C57BL/6 mouse at 1 mg/kg, iv or 3 mg/kg, po; assay type: ADME, organism-based; settings: in vivo
[25] = Clearance in Beagle dog at 1 mg/kg, iv or 3 mg/kg, po; assay type: ADME, organism-based, Canis lupus familiaris; settings: in vivo
[26] = Dose normalized Cmax in Lewis rat at 1 mg/kg, iv or 3 mg/kg, po; assay type: ADME, organism-based; settings: in vivo
[27] = Volume of distribution at steady state in C57BL/6 mouse at 1 mg/kg, iv or 3 mg/kg, po; assay type: ADME, organism-based; settings: in vivo, read-out: Vdss
[28] = Oral bioavailability in Lewis rat at 3 mg/kg; assay type: ADME, organism-based; settings: in vivo
[29] = Half life in Lewis rat at 1 mg/kg, iv or 3 mg/kg, po; assay type: ADME, organism-based; settings: in vivo
[30] = Dose normalized AUC in Lewis rat at 3 mg/kg, po; assay type: ADME, organism-based; settings: in vivo
[31] = Tmax in C57BL/6 mouse at 1 mg/kg, iv or 3 mg/kg, po; assay type: ADME, organism-based; settings: in vivo
[32] = Thermodynamic solubility of the compound at pH 6.8; assay type: physicochemical; settings: buffer, read-out: Therm_solubility
[33] = Drug level in OFA-1 rat at 1 mg/kg, po measured after 5 hrs; assay type: ADME, organism-based; settings: in vivo, read-out: Drug uptake
[34] = Volume of distribution at steady state in Lewis rat at 1 mg/kg, iv or 3 mg/kg, po; assay type: ADME, organism-based; settings: in vivo, read-out: Vdss
[35] = Dose normalized AUC in C57BL/6 mouse at 3 mg/kg, po; assay type: ADME, organism-based; settings: in vivo

CC#CC(=O)N(C)CCOc1c(N)ncnc1-c1cc(F)cc(NC(=O)c2ccc(C3CC3)cc2F)c1C
remaining at 24 h [1]: 79.6%

C=CC(=O)N(CC)CCOc1c(N)ncnc1-c1cc(F)cc(NC(=O)c2ccc(C3CC3)cc2F)c1C
logP [2]: 3.6
half-life [3]: > 120 min

Cc1c(NC(=O)c2ccc(C3CC3)cc2F)cc(F)cc1-c1ncnc(N)c1OCCN(C)C(=O)/C=C/CN(C)C
remaining at 24 h [1]: 60.8%

C=CC(=O)N1CCC(Oc2c(N)ncnc2-c2cc(F)cc(NC(=O)c3ccc(C4CC4)cc3F)c2C)CC1
concentration at 5 h [4]: 207 nM
half-life [3]: > 120 min

C=CC(=O)N(C)CC/C=C/c1c(N)ncnc1-c1cc(F)cc(NC(=O)c2ccc(C3CC3)cc2)c1C
microsomal CLint [5]: 815 µL/min/mg

C=CC(=O)N1CC(Oc2c(N)ncnc2-c2cc(F)cc(NC(=O)c3ccc(C4CC4)cc3)c2C)C1
concentration at 5 h [6]: 13 nM
microsomal CLint [5]: 25 µL/min/mg
bioavailability [7]: 5%

C#CC(=O)N(C)CCOc1c(N)ncnc1-c1cc(F)cc(NC(=O)c2ccc(C3CC3)cc2F)c1C
remaining at 24 h [1]: 0.1%
half-life [3]: 96 min

C=CC(=O)N1CCC[C@H]1COc1c(N)ncnc1-c1cc(F)cc(NC(=O)c2ccc(C3CC3)cc2F)c1C
half-life [3]: > 120 min

C=CC(=O)N(C)C/C=C/c1c(N)ncnc1-c1cc(F)cc(NC(=O)c2ccc(C3CC3)cc2F)c1C
CL/F [8]: 307 mL/min/kg
half-life [3]: > 120 min

C=CC(=O)NCCOc1c(N)ncnc1-c1cc(F)cc(NC(=O)c2ccc(C3CC3)cc2F)c1C
half-life [3]: > 120 min

C=CC(=O)N(C)C/C=C/c1c(N)ncnc1-c1cc(F)cc(NC(=O)c2ccc(C3CC3)cc2)c1C
microsomal CLint [5]: 924 µL/min/mg

C=CC(=O)N1CC(Oc2c(N)ncnc2-c2cc(F)cc(NC(=O)c3ccc(C4CC4)cc3F)c2C)C1
bioavailability [7]: 51%
half-life [3]: 35 min

C/C=C/C(=O)N(C)CCOc1c(N)ncnc1-c1cc(F)cc(NC(=O)c2ccc(C3CC3)cc2F)c1C
remaining at 24 h [1]: 95.8%

C=CC(=O)N1CC[C@H]1COc1c(N)ncnc1-c1cc(F)cc(NC(=O)c2ccc(C3CC3)cc2F)c1C
half-life [3]: 42 min

C=CC(=O)N1CCC(Oc2c(N)ncnc2-c2cc(F)cc(NC(=O)c3ccc(C4CC4)cc3)c2C)C1 (stereo not drawn)
microsomal CLint [5]: 135 µL/min/mg

C=CC(=O)N(C)CCOc1c(N)ncnc1-c1cc(F)cc(NC(=O)c2ccc(C3CC3)cc2F)c1C [REMIBRUTINIB]
concentration at 0.5 h [9]: 49.1 nM
clearance [10]: 44 mL/min/kg
Tmax [11]: 48 min
microsomal CLint [12]: 146 µL/min/mg
half-life [13]: 54 min
Tmax [14]: 18 min
bioavailability [15]: 5%
Cmax/dose [16]: 19 nM
logP [2]: 2.9
remaining at 24 h [1]: 68.5%
solubility thermodynamic [17]: > 1500 µg/mL
microsomal CLint [5]: 33 µL/min/mg
AUC/dose [18]: 55 nM·h
bioavailability [19]: 16%
Vd [20]: 1 L/kg
half-life [21]: 60 min
clearance [22]: 97 mL/min/kg
microsomal CLint [23]: 325 µL/min/mg
Cmax/dose [24]: 53 nM
clearance [25]: 29 mL/min/kg
Cmax/dose [26]: 148 nM
Vd [27]: 1 L/kg
bioavailability [28]: 29%
half-life [29]: 30 min
AUC/dose [30]: 225 nM·h
Tmax [31]: 18 min
solubility thermodynamic [32]: < 3 µg/mL
concentration at 5 h [33]: 5.6 nM
half-life [3]: > 120 min
Vd [34]: 1.4 L/kg
AUC/dose [35]: 54 nM·h
